Test results taken from US20160007585A1, “INSECT CONTROL DEVICE” (Clarke Mosquito Control Products, Inc., priority 2014, published 2016).

tested on: Anopheles gambiae; assay: Attraction tests in outdoor screenhouses: mosquitoes caught in MM-X or BG Sentinel traps baited with plant-based volatile organic compounds; type: in vivo; conditions: single compounds suspended in mineral oil; 300-400 released
Method: Attraction tests were conducted in two sizes of outdoor screenhouses (˜5.5×7 m and 11×7 m, each>3 m high) at the Mbita research station (Odhiambo Campus, Kenya) of the International Centre of Insect Physiology & Ecology (ICIPE). The screenhouses provided a semi-natural physical environment that allowed experimental control over mosquito sample size and recovery of marked and/or released mosquitoes. It was noted that fluctuations of weather conditions would cause variations in flight behavior from night to night, affecting attraction to volatile organic compounds. The walls and ceiling were lined with netting to reduce interference from ants and spiders and to prevent mosquitoes from aggregating in the vaulted ceiling. The floor was a bed of sand, dampened daily. On the floor at each corner of the screenhouse, dampened pots served as resting harborages, which the mosquitoes typically entered at dawn. When local potted plants were included in the environment, they were spaced throughout the floor.
Tested mosquitoes were the Mbita strain of Anopheles gambiae, colonized locally about 14 years ago, but with infusions of field material in some subsequent years, to maintain genetic diversity. Adults emerging each night from daily collections of pupae were fed water only and were tested in the screenhouses the following night. At this age, both sexes still have adequate deposits of somatic energy from larval feeding but will die during the following 1.5 days without nutrients. Before sunset, the volatile organic compounds baits were installed in mosquito traps, their fans were turned on, and the mosquitoes were released from a small cage prepared for that purpose.
Attraction was measured as the number of mosquitoes caught in MM-X or BG Sentinel traps baited with plant-based volatile organic compounds. The volatile organic compounds were prepared as individual compounds suspended in mineral oil, which controlled release rate according to dosage (concentration) while also retarding release rate of all compounds. Each compound was released separately from other compounds when more than one was released simultaneously. The oil-volatile organic compound suspensions were applied to two different types of release substrates: long nylon fabric strips in the exhaust tube of the trap, and short cotton wicks suspended in a wire basket beneath the exhaust tube. […] As an example of the tested volatile organic compounds, the release profiles of hexanol and phenylacetaldehyde (suspended in hexane or mineral oil, applied to nylon sock or cotton wick) as measured in a MM-X trap is shown in FIGS. 19a and 19b, respectively. The release profiles of hexanol, linalool oxide, ocimene, pinene, and 6-methyl-5-hepten-2-one are similar to phenylacetaldehyde.
The layout of traps was designed to maximize discrimination among traps releasing different plant-based volatile organic compounds or releasing none (the blank control). The small screenhouses contained 2 traps, positioned diagonally. The large screenhouses contained 4 traps. In both sizes, the traps were near the corners, but not so close to the netting walls as to interfere with mosquito flight around the traps or the free flow of the odor plume from the traps. For replicates of each test, the positions of the traps were rotated, to minimize positional bias for one of these variables: a particular compound, particular dose of a compound, or particular combination of several compounds or their proportions. In early tests, a blank trap was always included. But after establishing that a blank trap never caught more than 10 mosquitoes, out of 300-400 released, blank traps were usually replaced by one with a bait using volatile organic compounds. The number trapped out of the total number released, expressed as a percentage, was seldom calculated, because of the large and variable numbers of mosquitoes unaccounted for by trap and aspirator recapture. […]

Compound	attraction score (number of mosquitoes caught in baited trap), in words
CCCCCCO [Hexanol, hexanol]	good scores even at low dosages, with little or no improvement at higher doses
CCOC(=O)Cc1ccccc1 [ethylphenylacetate]	in higher dosages (and therefore higher release rates) gave higher attraction scores
C=CC(C)(O)CCC=C(C)C (stereo not drawn) [linalool]	in higher dosages (and therefore higher release rates) gave higher attraction scores
C=CC(C)=CCC=C(C)C [ocimene]	in higher dosages (and therefore higher release rates) gave higher attraction scores
O=CCc1ccccc1 [phenylacetaldehyde]	weak or mediocre
caryophyllene	in higher dosages (and therefore higher release rates) gave higher attraction scores
